We go through 29 molecules from patent US7884124B2, “Fluoro-substituted inhibitors of D-amino acid oxidase” (Sepracor Inc., priority 2006, dated 2011).

One test deals with Human DAAO (Homo sapiens, UniProt P14920). Nature of the test: D-Amino Acid Oxidase Enzyme Assay (D-serine substrate, horseradish peroxidase/Amplex Red coupled fluorescence). The test is classed as biochemical.
Test [1] concerns D-Serine Levels in the cerebellum. Put plainly: In vivo elevation of D-serine levels in the cerebellum (LC/MS/MS). As to conditions: Mus musculus, ip, mice, read-out: Fold increase in D-serine in the cerebellum over vehicle; for response vs control in vivo at 10 mg/kg: 10 mg/kg i.p.; for response vs control in vivo at 50 mg/kg: 50 mg/kg i.p. On the procedure: In another example, the compounds activity is determined by measuring D-serine levels in vivo. Elevation of the D-serine level in a certain brain area (e.g., the cerebellum) of a test animal (e.g., mouse, rat, pig and the like) is indicative of DAAO inhibition in vivo. An exemplary assay format, which measures D-serine levels (LC/MS/MS) in the cerebellum of mice two hours and six hours after intraperitoneal (i.p.) dosing, is described herein (e.g., Example 9). Increases in D-serine levels were determined through comparison with vehicle. Useful variations of this assay will be apparent to those of skill in the art. Compounds of the invention are judged to be sufficiently active in this assay when at least one, preferably at least two, more preferably at least three and most preferably all four of the following criteria are met:
Mice (C57BL/6, 8-9 weeks of age) were dosed intraperitoneally at 10 mL/kg with 50 mg/kg or 10 mg/kg of compound suspended in 45% (w/v) hydroxy-β-cyclodextrin vehicle. Animals were sacrificed at either 2 or 6 hours post compound administration with an N=3 per time point. At sacrifice, trunk blood was collected into tubes containing potassium EDTA, which were then centrifuged to permit isolation of plasma. The cerebellum from each animal was dissected. Plasma and cerebellum samples were stored at −80° C. until samples were analyzed (LC/MS/MS).

Setting [2] is: D-serine 5 mM, pH 7.4, read-out: Human DAAO Inhibition (IC50).

The structures appear in SMILES notation. Where two headings read alike, the source gives them in different places.

Sequence of Human DAAO (P14920 whole entry): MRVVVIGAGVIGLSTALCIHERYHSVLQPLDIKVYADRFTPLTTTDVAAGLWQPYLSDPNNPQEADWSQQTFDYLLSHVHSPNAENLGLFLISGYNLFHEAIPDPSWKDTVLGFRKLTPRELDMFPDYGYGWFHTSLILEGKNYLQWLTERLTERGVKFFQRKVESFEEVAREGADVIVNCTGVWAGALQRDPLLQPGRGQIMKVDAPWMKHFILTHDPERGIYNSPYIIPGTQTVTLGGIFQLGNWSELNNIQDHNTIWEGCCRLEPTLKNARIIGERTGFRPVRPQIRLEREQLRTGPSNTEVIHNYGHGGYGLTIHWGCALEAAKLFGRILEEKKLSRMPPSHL
Protocol for Human DAAO: This coupled reaction uses the enzyme substrate Amplex Red (Molecular Probes), which is converted to the fluorescent reaction product, resorufin (excitation 530-560 nm; emission ˜590 nm). All reagents were prepared in 50 mM sodium phosphate buffer at pH 7.4 and inhibition curves were generated at this pH.
The final concentrations of components in 200 μl total volume per well (black clear-bottom 96-well plate, Costar) were:
(a) Horseradish peroxidase: 4 Units per ml
(d) Amplex Red reagent: 50 uM
The reactions were initiated by addition of DAAO enzyme while the fluorescence was monitored. […] Inhibition curves were generated in the presence of varying concentrations of the inhibitor and IC50 values were calculated for each inhibitor.

What is called IC50 is the point on the concentration scale where inhibition reaches its midpoint. Regarding `O=C(O)c1cc2cc(Br)sc2[nH]1` [Compound 65, 2-bromo-6H-thieno[2,3-b]pyrrole-5-carboxylic acid], the IC50 at Human DAAO (setting [2]) was < 100 µM.

As to `O=C(O)c1cc2c(F)csc2[nH]1` [Compound 68, 3-fluoro-6H-thieno[2,3-b]pyrrole-5-carboxylic acid], the IC50 on Human DAAO (setting [2]) was < 0.025 µM. In addition, in test [1] (2 h), the response vs control in vivo at 10 mg/kg is < 150% and the response vs control in vivo at 50 mg/kg lay within 150 to 200%. In test [1] (6 h), the response vs control in vivo at 10 mg/kg was < 150% and the response vs control in vivo at 50 mg/kg fell in the range of 150 to 200%.

`O=C(O)c1[nH]c2ccoc2c1F` [Compound 75, 6-fluoro-4H-furo[3,2-b]pyrrole-5-carboxylic acid]: the IC50 on Human DAAO (setting [2]) was < 0.025 µM. Also, in test [1] (2 h), the response vs control in vivo at 10 mg/kg was > 200% and the response vs control in vivo at 50 mg/kg is > 200%. In test [1] (6 h), the response vs control in vivo at 10 mg/kg was 150 to 200% and the response vs control in vivo at 50 mg/kg was > 200%.

As for `O=C(O)c1[nH]c2ccsc2c1Cl` [Compound 70, 6-chloro-4H-thieno[3,2-b]pyrrole-5-carboxylic acid], the IC50 at Human DAAO (setting [2]) was < 0.1 µM. Besides, the response vs control in vivo at 10 mg/kg in test [1] (2 h) and in test [1] (6 h) was < 150% in each case.

`O=C(O)c1[nH]c2ccoc2c1Cl` [Compound 79, 6-chloro-4H-furo[3,2-b]pyrrole-5-carboxylic acid]: the IC50 on Human DAAO (setting [2]) was < 0.1 µM.

As for `O=C(O)c1cc2c(Cl)csc2[nH]1` [Compound 81, 3-chloro-6H-thieno[2,3-b]pyrrole-5-carboxylic acid], the IC50 on Human DAAO (setting [2]) was < 0.1 µM.

With `O=C(O)c1cc2scc(Br)c2[nH]1` [Compound 49, 3-bromo-4H-thieno[3,2-b]pyrrole-5-carboxylic acid], the half-maximal inhibitory concentration (IC50) at Human DAAO (setting [2]) is < 0.1 µM. In addition, the response vs control in vivo at 50 mg/kg in test [1] (2 h) and in test [1] (6 h) was < 150% throughout.

In the case of `O=C(O)c1[nH]c2ccsc2c1Br` [Compound 71, 6-bromo-4H-thieno[3,2-b]pyrrole-5-carboxylic acid], on Human DAAO (setting [2]), the IC50 was < 1 µM. Also, the response vs control in vivo at 10 mg/kg in test [1] (2 h) and in test [1] (6 h) was < 150% in each case.

As for `O=C(O)c1cc2oc(Cl)cc2[nH]1` [Compound 23, 2-chloro-4H-furo[3,2-b]pyrrole-5-carboxylic acid], on Human DAAO (setting [2]), the IC50 is < 100 µM.

As for `O=C(O)c1cc2cc(Cl)sc2[nH]1` [Compound 80, 2-chloro-6H-thieno[2,3-b]pyrrole-5-carboxylic acid], on Human DAAO (setting [2]), the half-inhibitory concentration (IC50) was < 100 µM.

In the case of `O=C(O)c1[nH]c2ccoc2c1Br` [Compound 72, 6-bromo-4H-furo[3,2-b]pyrrole-5-carboxylic acid], the half-maximal inhibitory concentration (IC50) at Human DAAO (setting [2]) is < 1 µM. Besides, in test [1] (2 h), the response vs control in vivo at 10 mg/kg was < 150% and the response vs control in vivo at 50 mg/kg was < 150%. Moreover, in test [1] (6 h), the response vs control in vivo at 10 mg/kg was < 150% and the response vs control in vivo at 50 mg/kg was < 150%.

For `O=C(O)c1cc2scc(F)c2[nH]1` [Compound 56, 3-fluoro-4H-thieno[3,2-b]pyrrole-5-carboxylic acid], on Human DAAO (setting [2]), the concentration for half-maximal inhibition (IC50) was < 0.025 µM. Further, the response vs control in vivo at 10 mg/kg is 150 to 200% in test [1] (2 h) and < 150% in test [1] (6 h).

Regarding `O=C(O)c1cc2oc(F)cc2[nH]1` [Compound 78, 2-fluoro-4H-furo[3,2-b]pyrrole-5-carboxylic acid], the IC50 at Human DAAO (setting [2]) was < 0.025 µM.

On to `O=C(O)c1cc2scc(Cl)c2[nH]1` [Compound 67, 3-chloro-4H-thieno[3,2-b]pyrrole-5-carboxylic acid], for which, at Human DAAO (setting [2]), the IC50 was < 0.025 µM. In test [1] (2 h), the response vs control in vivo at 10 mg/kg is < 150% and the response vs control in vivo at 50 mg/kg is < 150%. In test [1] (6 h), the response vs control in vivo at 10 mg/kg was < 150% and the response vs control in vivo at 50 mg/kg is < 150%.

As for `O=C(O)c1cc2occ(F)c2[nH]1` [Compound 74, 3-fluoro-4H-furo[3,2-b]pyrrole-5-carboxylic acid], the concentration for half-maximal inhibition (IC50) at Human DAAO (setting [2]) is < 0.025 µM. The figures for the response vs control in vivo at 10 mg/kg in test [1] (2 h) and in test [1] (6 h) were > 200% and 150 to 200%, respectively. Also, the response vs control in vivo at 50 mg/kg in test [1] (2 h) and in test [1] (6 h) was > 200% throughout.

As to `O=C(O)c1cc2sc(F)cc2[nH]1` [Compound 55, 2-fluoro-4H-thieno[3,2-b]pyrrole-5-carboxylic acid], the half-inhibitory concentration (IC50) at Human DAAO (setting [2]) was < 0.025 µM. Besides, in test [1] (2 h), the response vs control in vivo at 10 mg/kg was < 150% and the response vs control in vivo at 50 mg/kg is > 200%. Besides, in test [1] (6 h), the response vs control in vivo at 10 mg/kg was < 150% and the response vs control in vivo at 50 mg/kg is 150 to 200%.

`O=C(O)c1cc2cc(F)sc2[nH]1` [Compound 66, 2-fluoro-6H-thieno[2,3-b]pyrrole-5-carboxylic acid]: the IC50 on Human DAAO (setting [2]) is < 0.025 µM. Further, in test [1] (2 h), the response vs control in vivo at 10 mg/kg lay within 150 to 200% and the response vs control in vivo at 50 mg/kg is > 200%. Moreover, in test [1] (6 h), the response vs control in vivo at 10 mg/kg is < 150% and the response vs control in vivo at 50 mg/kg is 150 to 200%.

With `O=C(O)c1[nH]c2sccc2c1Br` [Compound 64, 4-bromo-6H-thieno[2,3-b]pyrrole-5-carboxylic acid], the IC50 at Human DAAO (setting [2]) is < 1 µM. The response vs control in vivo at 10 mg/kg in test [1] (2 h) and in test [1] (6 h) was < 150% throughout. The response vs control in vivo at 50 mg/kg in test [1] (2 h) and in test [1] (6 h) was < 150% each time.

Take `O=C(O)c1cc2occ(Cl)c2[nH]1` [Compound 76, 3-chloro-4H-furo[3,2-b]pyrrole-5-carboxylic acid]: the half-maximal inhibitory concentration (IC50) on Human DAAO is < 0.1 µM. Also, the response vs control in vivo at 10 mg/kg in test [1] (2 h) and in test [1] (6 h) was < 150% in each case.

Take `O=C(O)c1cc2sc(Cl)cc2[nH]1` [Compound 4, 2-chloro-4H-thieno[3,2-b]pyrrole-5-carboxylic acid]: the 50% inhibitory concentration (IC50) on Human DAAO (setting [2]) is < 100 µM. The response vs control in vivo at 50 mg/kg in test [1] (2 h) and in test [1] (6 h) was < 150% each time.

As to `O=C(O)c1[nH]c2sccc2c1Cl` [Compound 69, 4-chloro-6H-thieno[2,3-b]pyrrole-5-carboxylic acid], the IC50 on Human DAAO (setting [2]) was < 0.1 µM.

For the molecule `O=C(O)c1[nH]c2ccsc2c1F` [Compound 54, 6-fluoro-4H-thieno[3,2-b]pyrrole-5-carboxylic acid], on Human DAAO (setting [2]), the IC50 is < 0.025 µM. Also, the response vs control in vivo at 10 mg/kg in test [1] (2 h) and in test [1] (6 h) was > 200% each time.

For `O=C(O)c1cc2occ(Br)c2[nH]1` [Compound 30, 3-bromo-4H-furo[3,2-b]pyrrole-5-carboxylic acid], the 50% inhibitory concentration (IC50) on Human DAAO (setting [2]) was < 0.1 µM. In test [1] (2 h), the response vs control in vivo at 10 mg/kg was < 150% and the response vs control in vivo at 50 mg/kg was 150 to 200%. In test [1] (6 h), the response vs control in vivo at 10 mg/kg was < 150% and the response vs control in vivo at 50 mg/kg was < 150%.

Turning to `O=C(O)c1cc2oc(Br)cc2[nH]1` [Compound 73, 2-bromo-4H-furo[3,2-b]pyrrole-5-carboxylic acid], on Human DAAO (setting [2]), the half-inhibitory concentration (IC50) was < 100 µM.

For the molecule `O=C(O)c1cc2c(Br)csc2[nH]1` [Compound 8, 3-bromo-6H-thieno[2,3-b]pyrrole-5-carboxylic acid], the IC50 on Human DAAO (setting [2]) is < 1 µM. In test [1] (2 h), the response vs control in vivo at 10 mg/kg is < 150% and the response vs control in vivo at 50 mg/kg is 150 to 200%. For the same molecule, in test [1] (6 h), the response vs control in vivo at 10 mg/kg is < 150% and the response vs control in vivo at 50 mg/kg is 150 to 200%.

Take `O=C(O)c1[nH]c2sccc2c1F` [Compound 82, 4-fluoro-6H-thieno[2,3-b]pyrrole-5-carboxylic acid]: the IC50 at Human DAAO (setting [2]) is < 0.1 µM.

As for `O=C(O)c1cc2sc(Br)cc2[nH]1` [Compound 5, 2-bromo-4H-thieno[3,2-b]pyrrole-5-carboxylic acid], the IC50 on Human DAAO (setting [2]) is < 1 µM. Further, in test [1] (2 h), the response vs control in vivo at 10 mg/kg is < 150% and the response vs control in vivo at 50 mg/kg lay within 150 to 200%. In test [1] (6 h), the response vs control in vivo at 10 mg/kg was < 150% and the response vs control in vivo at 50 mg/kg is < 150%.

As to `O=C(O)c1cc2sc(Br)c(Br)c2[nH]1` [Compound 6, 2,3-dibromo-4H-thieno[3,2-b]pyrrole-5-carboxylic acid], the half-inhibitory concentration (IC50) on Human DAAO (setting [2]) was < 100 µM.

For orientation: inhibition means the percentage by which the read-out fell short of the control. Lower therefore signals little suppression. On Human DAAO, `O=C(O)c1[nH]c2sc(Br)cc2c1Br` [Compound 84, 2,4-dibromo-6H-thieno[2,3-b]pyrrole-5-carboxylic acid] returned an inhibition at 100 µM of 33%.
